Here are results for three molecules from paper PMC4424274, “Evaluation of [^11C]CB184 for imaging and quantification of TSPO overexpression in a rat model of herpes encephalitis” (European Journal of Nuclear Medicine and Molecular Imaging, 2015).

Series [1] addresses T1, TSPO (Rattus norvegicus, UniProt P16257).
T1 construct: from tissue; host or cells: Brain regions and peripheral organs of male Wistar rats, measured in vivo by PET and ex vivo by gamma counting
Particulars: HSE rat model; cited from earlier work.

The conditions of series [2]: lipophilicity; cited from earlier work.
Series [3] addresses T1, TSPO. The series is described as follows: Kinetic modelling of PET data (2TCMR, Logan): BPND and VT. The format is in vivo. As to the method:
(§1) PET scans with arterial blood sampling were performed in a different set of rats to generate input for pharmacokinetic modelling. For the arterial blood sampling a cannula was inserted into the femoral artery after induction of anaesthesia. The femoral vein was additionally cannulated for PET tracer injection. After cannulation, the rats were positioned in the camera and a transmission scan was acquired using a ^57Co point source. […] A 0.1 ml blood sample of was taken at 0, 5, 10, 15, 20, 30, 45, 60, 75, 90, 120, 180, 300, 450, 600, 900, 1,800 and 3,600 s after injection. A larger blood sample of 0.5 ml was taken at three time points (5, 15, 30 and/or 60 min) for metabolite analysis. After collection of each blood sample, heparinized saline was injected to prevent large changes in blood pressure. A 25 μl aliquot of whole blood was extracted from each sample for radioactivity measurement. The remainder of each sample was centrifuged at 13,000 rpm (15,996 g) for 8 min, and 25 μl plasma was taken for radioactivity measurement. The radioactivity in blood and plasma was measured with a gamma counter.
The TACs of those rats in which blood sampling was performed, together with their corresponding whole-blood and metabolite-corrected plasma curves, were used for pharmacokinetic modelling using PMOD v3.3 (PMOD Technologies, Zürich, Switzerland). […] The reversible two-tissue compartment model (2TCMR) with K 1/k 2 fixed to the whole cortex value and a fixed blood volume of 3 % were used to calculate the V T and nondisplaceable binding potential (BPND, calculated as k 3/k 4 [29]).

Details of series [4]: method as in PMID 19050880. Particulars: cited from earlier work.
The nature of series [5]: Plasma clearance and plasma metabolite analysis. The format is in vivo, rat. To be noted: metabolite-corrected plasma, intravenous injection, rats. As to the method:
as §1
Radioactive metabolites in plasma were measured using the extra blood samples taken at three time points during each scan (5, 15, 30 and/or 60 min). After centrifugation and collection of the plasma sample for radioactive measurement, as described above, the remaining plasma was diluted with acetonitrile (1.5 times the amount of plasma) and vortex-mixed. The plasma suspension was centrifuged at 5,300 rpm (3,030 g) for 3 min, and divided into supernatant and pellet. […] Fractions of 30 s were collected and measured in the gamma counter.
The percentage of metabolites in plasma was calculated by fitting an exponential function to the values obtained from the HPLC analysis. The plasma values obtained from the blood samples during the PET scan were then corrected for the presence of these metabolites, and used together with the whole-blood curve for further analysis. Metabolite corrected plasma TACs were fitted for each individual rat using iterative nonlinear least-squares fitting to the biexponential equation: SUVt = Ae^−αt + Be^−βt, where SUVt is the plasma SUV at time t, α and β are the apparent distribution and elimination rate constants (s^−1), respectively, and A and B are the corresponding zero-time intercepts. The weighting factors were the reciprocals of the plasma SUV squared. Distribution and elimination half-lives (seconds) were calculated as the natural logarithm of 2 divided by α and β, respectively.

Series [6] concerns the target T1, TSPO. Kind of series: Ex vivo biodistribution of [^11C]CB184 in control and HSE rats. To be noted: 5 mg/kg unlabelled PK11195 5 min before tracer injection; control and HSE rats. As to the method: PET scans were performed using a microPET Focus 220 camera (Siemens Medical Solutions Inc., Malvern, PA) on either day 6 or day 7 after inoculation with HSV-1 [18], depending on the severity of clinical symptoms. The rats were anaesthetized with 5 % isoflurane mixed with medical air at a flow rate of […]. After induction, anaesthesia was maintained with 1.5 – 2 % of isoflurane. The anaesthetized rats were positioned in the camera in a supine position with the head in the field of view. The PET tracer [^11C]CB184 was manually injected via the penile vein, and at the same time a dynamic 60-min scan was started. […] For 30 min the animals were kept under anaesthesia on the operation table after injection of the PET tracer into the penile vein, and were then placed in the scanner for a 30-min dynamic scan. A transmission scan was obtained in all rats using a ^57Co point source for attenuation and scatter correction. In the pretreated group, 5 mg/kg unlabelled PK11195 (Sigma-Aldrich, St. Louis, MO) in dimethyl sulphoxide (DMSO) at a concentration of 10 mg/ml was administered via a tail vein 5 min before injection of the PET tracer.
The brain and peripheral organs were excised and dissected, and blood was centrifuged to collect a plasma sample. Tissues were weighed and radioactivity was measured in a gamma counter (LKB Wallac, Turku, Finland). Tracer uptake in each region was corrected for the injected tracer dose and body weight and expressed as standardized uptake value (SUV), which was defined as: radioactivity (MBq/cm^3)/[injected dose (MBq)/body weight (g)].

The mark [7] stands for this setting: control rats (PBS group), k3/k4.

Each structure is given as a SMILES string. Where “and” joins values, the source holds several entries; their conditions need not be identical. Equal values may be shown once. Read-outs that look alike come from different tables or passages of the source.

Turning to `COc1ccc(O[11CH3])c(CN(C(C)=O)c2cc(F)ccc2Oc2ccccc2)c1` [[^11C]DAA1106], the “Uptake in vivo in HSE rats vs. control rats” value at TSPO [1] is “did not show significantly higher uptake”.

Take `CC[C@@H](C)N([11CH3])C(=O)c1cc2ccccc2c(-c2ccccc2Cl)n1` [(R)-[^11C]PK11195, reference compound]: in series [2], the logP is on record as 2.54. In addition, at TSPO [3] (HSE group, k3/k4), the “Binding potential (BPND), Amygdala” value amounted to 1.92 ± 0.73; the “Binding potential (BPND), Cerebellum” value is 1.89 ± 0.39; the “Binding potential (BPND), Frontal cortex” value was 1.54 ± 0.54; the “Binding potential (BPND), Hippocampus” value stood at 1.39 ± 0.58. For the same molecule, on TSPO [3] (HSE group, k3/k4), the “Binding potential (BPND), Hypothalamus” value was determined as 2.28 ± 0.84; the “Binding potential (BPND), Midbrain” value is given as 1.34 ± 0.42; the “Binding potential (BPND), Olfactory bulb” value amounted to 4.03 ± 1.20; the “Binding potential (BPND), Pons” value stood at 2.44 ± 0.41. Moreover, on TSPO [3] (HSE group, k3/k4), the “Binding potential (BPND), Rest cortices” value amounted to 1.62 ± 0.60; the “Binding potential (BPND), Septum” value is listed as 1.34 ± 0.57; the “Binding potential (BPND), Striatum” value was 1.03 ± 0.43; the “Binding potential (BPND), Thalamus” value was found to be 1.03 ± 0.51. The “Binding potential (BPND), Whole brain” value at TSPO [3] (HSE group, k3/k4) is 1.72 ± 0.49. Also, at TSPO [3] (setting [7]), the “Binding potential (BPND), Amygdala” value came out at 1.65 ± 0.62; the “Binding potential (BPND), Cerebellum” value turned out to be 1.51 ± 0.60; the “Binding potential (BPND), Frontal cortex” value came out at 1.35 ± 0.51; the “Binding potential (BPND), Hippocampus” value came out at 0.98 ± 0.44. Also, at TSPO [3] (setting [7]), the “Binding potential (BPND), Hypothalamus” value came to 1.92 ± 0.82; the “Binding potential (BPND), Medulla” value is 1.7 ± 0.6 and 1.65 ± 0.60; the “Binding potential (BPND), Midbrain” value was 0.96 ± 0.49; the “Binding potential (BPND), Olfactory bulb” value is 3.76 ± 1.16. Moreover, at TSPO [3] (setting [7]), the “Binding potential (BPND), Pons” value was 1.74 ± 0.69; the “Binding potential (BPND), Rest cortices” value is listed as 1.33 ± 0.46; the “Binding potential (BPND), Septum” value stood at 1.20 ± 0.38; the “Binding potential (BPND), Striatum” value was 0.88 ± 0.33. For the same molecule, at TSPO [3] (setting [7]), the “Binding potential (BPND), Thalamus” value was determined as 0.75 ± 0.35 and the “Binding potential (BPND), Whole brain” value is recorded as 1.38 ± 0.49. For the same molecule, on TSPO [3] (medulla), the “Increase of BPND in the medulla, HSE rats vs. control rats” value came out at 55%. Also, the “Percentage of unchanged tracer in rat brain homogenate” value in series [4] (20 min after injection) is 93 ± 4%. Besides, in series [4] (40 min after injection), the “Percentage of unchanged tracer in rat brain homogenate” value was 90 ± 7%. Also, in series [5], the “Distribution half-life in plasma” value was 0.367 ± 0.12 min and the “Elimination half-life in plasma” value is recorded as 65 ± 46 min.

With `CCC(C)N(C)C(=O)c1cc2ccccc2c(-c2ccccc2Cl)n1` (centres unmarked) [PK11195, reference compound], the “Effect of pretreatment on [^11C]CB184 binding to TSPO” value on TSPO [6] is recorded as “blocked”.

In general, logP refers to the decadic logarithm of the partition coefficient of the neutral form, usually between octanol and water.
